Measured values as given in patent US8481551B2, “Gyrase and topoisomerase IV inhibitors” (Vertex Pharmaceuticals Incorporated, priority 2011, dated 2013).

Legend:
Aqueous solubility study = format: physicochemical
Experimental: The aqueous solubilities of compound 23 and compound W were determined according to the following procedure.
Preparation of Samples. Aqueous samples of each compound were prepared as follows. Compounds were weighed (20-30 mg compound) in 4 ml clear vials prior to adding water (0.5 mL) and stirring by magnetic stirrer. 1.0N HCl was added to the suspension to adjust the pH to the desired range. After stirring for 96 hours at room temperature, the suspension was filtered through a 0.22 micron filter (Millipore, Ultrafree centrifugal filters, Durapore PVDF 0.22 μm, Cat# UFC30GVNB). The filtrate was collected and the pH measured with a pH meter.
Preparation of Standard Solutions. […]
Solubility Analysis. Aliquots of each sample and each standard solution were analyzed by HPLC analysis (Agilent 1100, injection volume 10 μL, wavelength 271 nm, column XTerra® Phenyl 5 μm, 4.6×50 mm, Part No. 186001144, mobile phase: A: 0.1% TFA in water 0.1% TFA in AcN). […] Standard curves were obtained by plotting the average of the peak area from the HPLC versus the concentrations of the standard solutions (with appropriate corrections of the weights of the standards based on total water content of the solid as determined by elemental analysis). The concentration of each sample was calculated from the peak area of the aqueous sample from the HPLC results and the slope and intercept of the standard curves. […]

[1] = Pharmacokinetics, rat IV study; settings: male Sprague Dawley rats, plasma, analyte as labelled; for AUC: male, Sprague Dawley, rat, iv
[2] = Compound W 1 mg/kg single IV bolus in D5W
[3] = Compound W 5 mg/kg single IV bolus in D5W
[4] = 1 mg/kg, AUC, Compound W 1 mg/kg single IV bolus in D5W
[5] = 1 mg/kg, AUCextrap, Compound W 1 mg/kg single IV bolus in D5W
[6] = 5 mg/kg, AUC, Compound W 5 mg/kg single IV bolus in D5W
[7] = 5 mg/kg, AUCextrap, Compound W 5 mg/kg single IV bolus in D5W

In the case of CCNC(=O)Nc1nc2cc(-c3cnc(C(C)(C)OP(=O)([O-])[O-])nc3)c(F)c([C@H]3CCCO3)c2[nH]1.[Na+].[Na+] [Compound W, disodium (R)-2-(5-(2-(3-ethylureido)-6-fluoro-7-(tetrahydrofuran-2-yl)-1H-benzo[d]imidazol-5-yl)pyrimidin-2-yl)propan-2-yl phosphate], the solubility at 96 h (Aqueous solubility study; aqueous buffer, thermodynamic from solid, water, pH 4.39, crystalline solid form, 96 hours at room temperature) is reported as 250 µg/mL, the Cl_obs [1, 2] is reported as 46.7 mL/min/kg and the Vss_obs [1, 2] is reported as 0.38 L/kg. For the same compound, the Cl_obs [1, 3] was 84.6 mL/min/kg, the Vss_obs [1, 3] was 5.8 L/kg and the AUC [1, 4] was 416 ng·h/mL. For the same compound, the AUC [1, 5] was 419 ng·h/mL, the AUC [1, 6] was 1110 ng·h/mL and the AUC [1, 7] was 1120 ng·h/mL.

Work on CCNC(=O)Nc1nc2cc(-c3cnc(C(C)(C)O)nc3)c(F)c([C@H]3CCCO3)c2[nH]1 [Compound 23, 1-ethyl-3-[6-fluoro-5-[2-(1-hydroxy-1-methyl-ethyl)pyrimidin-5-yl]-7-[(2R)-tetrahydrofuran-2-yl]-1H-benzimidazol-2-yl]urea] yielded a Solubility (Aqueous solubility study; 96 h) of under 1 µg/mL, a Cl_obs [1, 2] of 54.9 mL/min/kg and a Vss_obs [1, 2] of 3.8 L/kg. The Cl_obs [1, 3] was 27.3 mL/min/kg, the Vss_obs [1, 3] was 4.08 L/kg and the AUC [1, 4] was 306 ng·h/mL. The AUC [1, 5] was 310 ng·h/mL, the AUC [1, 6] was 3040 ng·h/mL and the AUC [1, 7] was 3060 ng·h/mL.
